Measured values reported in ChEMBL document CHEMBL4507292 (2021).
pIC50, pKi: −log10 of the molar value.

Key:
[1] = molecular target: Platelet-activating factor receptor (Homo sapiens) (UniProt P25105); assay: Inhibition of Platelet Activating Factor (PAF) at 10 µM in the Eurofins-Panlabs radioligand binding assay (Eurofins_assay_265010); conditions: Compound concentration 10.0 uM
[2] = molecular target: Tyrosine-protein kinase Lyn (Homo sapiens) (UniProt P07948); conditions: Compound concentration 1000.0 nM
[3] = molecular target: Calcium/calmodulin-dependent protein kinase type 1 (Homo sapiens) (UniProt Q14012); conditions: Compound concentration 1000.0 nM
Caspase-3 (Homo sapiens) = Caspase-3 (Homo sapiens) (UniProt P42574); assay: Peptidase, CASP3 (Caspase 3) Eurofins-Panlabs enzyme assay; conditions: Compound concentration 10.0 uM
[4] = molecular target: Tyrosine-protein kinase Mer (Homo sapiens) (UniProt Q12866); conditions: Compound concentration 1000.0 nM
[5] = tested on: Tyrosine-protein kinase ABL1 (Homo sapiens), P00519 [F317I]; conditions: Compound concentration 1000.0 nM
[6] = molecular target: Serine/threonine-protein kinase TAO3 (Homo sapiens) (UniProt Q9H2K8); conditions: Compound concentration 1000.0 nM
[7] = molecular target: MAP kinase-interacting serine/threonine-protein kinase 1 (Homo sapiens) (UniProt Q9BUB5); conditions: Compound concentration 1000.0 nM
[8] = molecular target: voltage-gated sodium channel, site 2 (Rattus norvegicus, UniProt F1LQQ7+O08562+O88420+O88457+P04774+P04775+P08104+P15389+P15390+Q62968); assay: Inhibition of Sodium Channel, Site 2 at 10 µM in the Eurofins-Panlabs radioligand binding assay (Eurofins_assay_279510); type: protein assay; design: ligand concentration 5 nM, non-specific ligand with concentration 100 µM Veratridine, incubation time 60 min, incubation temperature 37 °C; conditions: male, Wistar, rat whole brain (except cerebellum) membranes, probe [3H] Batrachotoxinin, 5 nM, compound concentration 10 uM
[9] = tested on: Tyrosine-protein kinase ABL1 (Homo sapiens), P00519 [T315I]; conditions: Compound concentration 1000.0 nM
[10] = molecular target: T1, D(4) dopamine receptor (Homo sapiens) (UniProt P21917); conditions: Compound concentration 10.0 uM
T1 sequence (whole entry): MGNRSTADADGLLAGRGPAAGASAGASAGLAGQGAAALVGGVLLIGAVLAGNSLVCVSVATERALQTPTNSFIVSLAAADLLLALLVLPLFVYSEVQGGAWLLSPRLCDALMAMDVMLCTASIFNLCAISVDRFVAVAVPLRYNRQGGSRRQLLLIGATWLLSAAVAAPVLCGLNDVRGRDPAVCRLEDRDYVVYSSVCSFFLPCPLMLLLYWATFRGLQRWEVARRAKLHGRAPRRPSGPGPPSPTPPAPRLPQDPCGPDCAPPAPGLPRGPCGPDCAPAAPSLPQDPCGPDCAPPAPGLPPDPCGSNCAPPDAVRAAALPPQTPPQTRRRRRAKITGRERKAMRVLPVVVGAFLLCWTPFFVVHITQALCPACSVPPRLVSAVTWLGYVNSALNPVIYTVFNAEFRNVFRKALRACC

[11] = molecular target: Fibroblast growth factor receptor 1 (Homo sapiens) (UniProt P11362); conditions: Compound concentration 1000.0 nM
[12] = molecular target: Dual specificity mitogen-activated protein kinase kinase 6 (Homo sapiens) (UniProt P52564); conditions: Compound concentration 1000.0 nM
[13] = molecular target: Tyrosine-protein kinase TXK (Homo sapiens) (UniProt P42681); conditions: Compound concentration 1000.0 nM
[14] = molecular target: Sigma non-opioid intracellular receptor 1 (Homo sapiens, UniProt Q99720); assay: GPCRScan assay: inhibition of Sigma 1; design: radioligand conc. used [nm] 4.0 – 5.0, parental cells HEKT
[15] = molecular target: Serine/threonine-protein kinase 32A (Homo sapiens) (UniProt Q8WU08); conditions: Compound concentration 1000.0 nM
[16] = molecular target: Membrane-associated tyrosine- and threonine-specific cdc2-inhibitory kinase (Homo sapiens) (UniProt Q99640); conditions: Compound concentration 1000.0 nM
[17] = molecular target: Serine/threonine-protein kinase 3 (Homo sapiens) (UniProt Q13188); conditions: Compound concentration 1000.0 nM
[18] = molecular target: Sodium-dependent noradrenaline transporter (Homo sapiens, UniProt P23975); assay: Inhibition of Transporter, Norepinephrine (NET) at compound concentration of 10.0 uM in the Eurofins-Panlabs radioligand binding assay (Eurofins_assay_204410); design: ligand concentration 0.2 nM, non-specific ligand with concentration 10 uM Desipramine, incubation time 3 h, incubation temperature 4 C
[19] = molecular target: Calcium/calmodulin-dependent protein kinase kinase 2 (Homo sapiens) (UniProt Q96RR4); conditions: Compound concentration 1000.0 nM
[20] = tested on: Phosphatidylinositol 4,5-bisphosphate 3-kinase catalytic subunit alpha isoform (Homo sapiens), P42336 [E545K]; conditions: Compound concentration 1000.0 nM
[21] = molecular target: Serine/threonine-protein kinase BRSK1 (Homo sapiens) (UniProt Q8TDC3); conditions: Compound concentration 1000.0 nM
[22] = molecular target: Receptor-type tyrosine-protein kinase FLT3 (Homo sapiens) (UniProt P36888); conditions: Compound concentration 1000.0 nM
[23] = molecular target: Dual specificity protein kinase CLK4 (Homo sapiens) (UniProt Q9HAZ1); conditions: Compound concentration 1000.0 nM
[24] = molecular target: Ribosomal protein S6 kinase alpha-1 (Homo sapiens) (UniProt Q15418); conditions: Compound concentration 1000.0 nM
[25] = molecular target: MAP/microtubule affinity-regulating kinase 4 (Homo sapiens) (UniProt Q96L34); conditions: Compound concentration 1000.0 nM
[26] = molecular target: Serine/threonine-protein kinase ULK3 (Homo sapiens) (UniProt Q6PHR2); conditions: Compound concentration 1000.0 nM
[27] = molecular target: Muscarinic acetylcholine receptor M1 (Homo sapiens) (UniProt P11229); conditions: Compound concentration 10.0 uM
[28] = molecular target: Receptor tyrosine-protein kinase erbB-3 (Homo sapiens) (UniProt P21860); conditions: Compound concentration 1000.0 nM
[29] = molecular target: Testis-specific serine/threonine-protein kinase 1 (Homo sapiens) (UniProt Q9BXA7); conditions: Compound concentration 1000.0 nM
[30] = molecular target: Tyrosine-protein kinase Tec (Homo sapiens) (UniProt P42680); conditions: Compound concentration 1000.0 nM
[31] = molecular target: Macrophage metalloelastase (Homo sapiens) (UniProt P39900); assay: Peptidase, Matrix Metalloproteinase-12 (MMP-12) Eurofins-Panlabs enzyme assay; conditions: Compound concentration 10.0 uM
[32] = molecular target: Beta-3 adrenergic receptor (Homo sapiens, UniProt P13945); assay: Inhibition of Adrenergic beta3 at compound concentration of 10.0 uM in the Eurofins-Panlabs radioligand binding assay (Eurofins_assay_204200); design: ligand concentration 0.5 nM, non-specific ligand with concentration 1000 uM Alprenolol, incubation time 90 min, incubation temperature 25 C
[33] = molecular target: Serine/threonine-protein kinase MRCK beta (Homo sapiens) (UniProt Q9Y5S2); conditions: Compound concentration 1000.0 nM

Tyrosine-protein kinase Lyn (Homo sapiens), sequence (P07948 2-512 limits assumed): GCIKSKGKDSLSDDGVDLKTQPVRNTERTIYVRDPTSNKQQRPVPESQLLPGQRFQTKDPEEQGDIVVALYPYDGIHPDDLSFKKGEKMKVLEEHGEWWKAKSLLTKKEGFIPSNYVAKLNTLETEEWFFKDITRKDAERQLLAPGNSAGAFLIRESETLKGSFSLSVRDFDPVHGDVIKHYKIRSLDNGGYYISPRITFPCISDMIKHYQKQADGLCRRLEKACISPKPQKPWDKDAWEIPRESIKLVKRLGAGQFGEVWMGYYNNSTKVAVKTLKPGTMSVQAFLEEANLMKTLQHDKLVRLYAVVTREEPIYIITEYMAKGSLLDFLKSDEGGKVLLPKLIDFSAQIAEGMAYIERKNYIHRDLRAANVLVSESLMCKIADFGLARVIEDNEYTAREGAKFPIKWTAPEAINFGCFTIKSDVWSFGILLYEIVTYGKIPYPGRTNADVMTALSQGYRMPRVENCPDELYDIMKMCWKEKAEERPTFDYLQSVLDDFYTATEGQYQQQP
Dual specificity mitogen-activated protein kinase kinase 6 (Homo sapiens), sequence (P52564 whole entry): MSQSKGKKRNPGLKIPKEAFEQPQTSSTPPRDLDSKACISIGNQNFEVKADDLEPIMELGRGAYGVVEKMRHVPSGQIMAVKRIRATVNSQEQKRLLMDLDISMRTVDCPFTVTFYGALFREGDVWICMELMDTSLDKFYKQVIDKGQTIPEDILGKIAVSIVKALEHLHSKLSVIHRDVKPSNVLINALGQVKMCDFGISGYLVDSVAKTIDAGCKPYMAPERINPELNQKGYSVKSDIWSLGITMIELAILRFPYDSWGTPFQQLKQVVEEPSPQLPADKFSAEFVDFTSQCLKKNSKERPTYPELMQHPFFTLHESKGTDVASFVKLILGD
Receptor-type tyrosine-protein kinase FLT3 (Homo sapiens), sequence (P36888 whole entry): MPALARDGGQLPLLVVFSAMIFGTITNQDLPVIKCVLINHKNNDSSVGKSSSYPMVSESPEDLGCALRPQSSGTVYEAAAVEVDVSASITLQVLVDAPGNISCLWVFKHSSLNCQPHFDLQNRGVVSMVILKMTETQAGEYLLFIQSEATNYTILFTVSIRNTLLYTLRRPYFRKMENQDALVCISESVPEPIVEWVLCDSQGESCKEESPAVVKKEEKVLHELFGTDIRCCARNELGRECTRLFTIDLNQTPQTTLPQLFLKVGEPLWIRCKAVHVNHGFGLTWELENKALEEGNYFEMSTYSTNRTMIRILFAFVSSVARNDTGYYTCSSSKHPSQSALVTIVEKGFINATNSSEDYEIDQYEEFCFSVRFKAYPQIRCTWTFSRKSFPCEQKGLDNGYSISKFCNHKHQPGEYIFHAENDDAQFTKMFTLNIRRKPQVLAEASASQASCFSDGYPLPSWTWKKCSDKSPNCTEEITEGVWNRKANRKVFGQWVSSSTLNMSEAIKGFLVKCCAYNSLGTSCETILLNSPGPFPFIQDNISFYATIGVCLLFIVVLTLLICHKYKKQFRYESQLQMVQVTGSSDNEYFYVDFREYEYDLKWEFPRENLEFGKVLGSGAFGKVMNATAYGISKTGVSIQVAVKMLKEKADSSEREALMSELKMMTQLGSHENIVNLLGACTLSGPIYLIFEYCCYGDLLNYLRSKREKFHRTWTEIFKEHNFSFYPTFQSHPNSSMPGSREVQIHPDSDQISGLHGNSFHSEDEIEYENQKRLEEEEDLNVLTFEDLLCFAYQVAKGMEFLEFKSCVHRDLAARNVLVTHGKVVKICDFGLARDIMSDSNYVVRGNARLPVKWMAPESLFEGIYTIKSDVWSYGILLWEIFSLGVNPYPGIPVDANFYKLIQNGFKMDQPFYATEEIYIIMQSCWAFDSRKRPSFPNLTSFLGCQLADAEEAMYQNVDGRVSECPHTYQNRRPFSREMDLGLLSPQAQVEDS
Serine/threonine-protein kinase TAO3 (Homo sapiens), sequence (Q9H2K8 whole entry): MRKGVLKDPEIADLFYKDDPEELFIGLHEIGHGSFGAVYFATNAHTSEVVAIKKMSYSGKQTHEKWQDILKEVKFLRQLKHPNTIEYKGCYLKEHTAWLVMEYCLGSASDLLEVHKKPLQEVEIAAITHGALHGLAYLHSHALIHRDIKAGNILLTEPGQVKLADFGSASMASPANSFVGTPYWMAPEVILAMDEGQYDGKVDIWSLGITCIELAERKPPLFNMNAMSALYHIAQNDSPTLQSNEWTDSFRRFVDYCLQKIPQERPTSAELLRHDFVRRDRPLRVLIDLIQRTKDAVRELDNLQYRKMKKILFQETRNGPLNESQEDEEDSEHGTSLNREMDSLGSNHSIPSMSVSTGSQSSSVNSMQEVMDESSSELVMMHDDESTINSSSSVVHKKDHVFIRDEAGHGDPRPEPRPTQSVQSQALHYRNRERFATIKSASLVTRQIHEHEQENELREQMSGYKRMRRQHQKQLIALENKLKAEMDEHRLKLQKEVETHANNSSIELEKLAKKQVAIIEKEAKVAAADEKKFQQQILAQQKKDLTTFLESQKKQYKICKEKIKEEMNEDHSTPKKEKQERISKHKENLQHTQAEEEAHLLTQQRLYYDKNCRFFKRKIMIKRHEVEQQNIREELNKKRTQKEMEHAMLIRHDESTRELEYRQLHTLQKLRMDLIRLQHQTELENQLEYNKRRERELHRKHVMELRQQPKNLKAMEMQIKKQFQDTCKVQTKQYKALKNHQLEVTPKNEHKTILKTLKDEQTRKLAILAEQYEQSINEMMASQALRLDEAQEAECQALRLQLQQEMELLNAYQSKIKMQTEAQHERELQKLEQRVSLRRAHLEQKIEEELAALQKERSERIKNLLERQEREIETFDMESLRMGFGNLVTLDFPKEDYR
Ribosomal protein S6 kinase alpha-1 (Homo sapiens), sequence (Q15418 whole entry): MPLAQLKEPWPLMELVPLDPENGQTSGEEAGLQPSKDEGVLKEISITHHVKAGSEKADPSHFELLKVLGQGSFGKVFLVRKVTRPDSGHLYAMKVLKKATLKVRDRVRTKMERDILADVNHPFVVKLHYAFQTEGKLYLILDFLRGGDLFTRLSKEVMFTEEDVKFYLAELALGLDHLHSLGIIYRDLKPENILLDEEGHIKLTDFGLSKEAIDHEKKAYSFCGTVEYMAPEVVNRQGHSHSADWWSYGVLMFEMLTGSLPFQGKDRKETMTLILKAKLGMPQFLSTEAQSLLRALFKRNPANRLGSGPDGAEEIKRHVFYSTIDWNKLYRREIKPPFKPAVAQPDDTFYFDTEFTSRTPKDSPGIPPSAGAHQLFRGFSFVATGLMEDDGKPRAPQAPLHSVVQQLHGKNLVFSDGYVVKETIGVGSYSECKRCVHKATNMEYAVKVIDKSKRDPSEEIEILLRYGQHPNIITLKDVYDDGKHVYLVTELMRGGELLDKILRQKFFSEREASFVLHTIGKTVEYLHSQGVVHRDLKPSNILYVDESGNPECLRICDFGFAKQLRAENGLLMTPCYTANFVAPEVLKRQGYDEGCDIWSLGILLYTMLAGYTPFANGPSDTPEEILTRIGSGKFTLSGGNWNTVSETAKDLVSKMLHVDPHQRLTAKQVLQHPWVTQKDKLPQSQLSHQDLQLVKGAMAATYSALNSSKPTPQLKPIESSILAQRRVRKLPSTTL
Tyrosine-protein kinase Mer (Homo sapiens), sequence (Q12866 whole entry): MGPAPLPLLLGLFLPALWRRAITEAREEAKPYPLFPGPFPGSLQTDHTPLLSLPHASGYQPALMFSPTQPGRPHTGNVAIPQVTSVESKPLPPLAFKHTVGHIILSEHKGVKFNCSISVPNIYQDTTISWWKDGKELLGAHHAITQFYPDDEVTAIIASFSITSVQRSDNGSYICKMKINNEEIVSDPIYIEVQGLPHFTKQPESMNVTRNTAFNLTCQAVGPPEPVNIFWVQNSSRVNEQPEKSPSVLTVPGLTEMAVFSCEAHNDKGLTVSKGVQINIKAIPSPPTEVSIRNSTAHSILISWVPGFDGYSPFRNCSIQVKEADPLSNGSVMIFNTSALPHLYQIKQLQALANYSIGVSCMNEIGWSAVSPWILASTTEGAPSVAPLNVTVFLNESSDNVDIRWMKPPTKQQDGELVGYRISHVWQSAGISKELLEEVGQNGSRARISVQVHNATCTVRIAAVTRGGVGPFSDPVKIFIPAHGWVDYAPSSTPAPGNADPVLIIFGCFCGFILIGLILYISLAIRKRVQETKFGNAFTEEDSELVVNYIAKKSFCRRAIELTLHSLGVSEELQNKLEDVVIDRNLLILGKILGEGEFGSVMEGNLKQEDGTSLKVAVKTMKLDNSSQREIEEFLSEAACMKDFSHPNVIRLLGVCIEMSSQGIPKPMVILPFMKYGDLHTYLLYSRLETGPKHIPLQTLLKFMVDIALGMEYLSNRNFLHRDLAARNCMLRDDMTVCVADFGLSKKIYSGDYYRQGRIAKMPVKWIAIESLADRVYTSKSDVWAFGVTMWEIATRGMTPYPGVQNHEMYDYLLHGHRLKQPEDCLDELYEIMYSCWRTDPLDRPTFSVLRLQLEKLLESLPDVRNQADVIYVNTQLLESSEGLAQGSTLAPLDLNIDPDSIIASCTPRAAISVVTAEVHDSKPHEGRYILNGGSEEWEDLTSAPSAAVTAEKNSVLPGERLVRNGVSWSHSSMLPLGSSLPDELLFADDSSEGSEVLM
Membrane-associated tyrosine- and threonine-specific cdc2-inhibitory kinase (Homo sapiens), sequence (Q99640 whole entry): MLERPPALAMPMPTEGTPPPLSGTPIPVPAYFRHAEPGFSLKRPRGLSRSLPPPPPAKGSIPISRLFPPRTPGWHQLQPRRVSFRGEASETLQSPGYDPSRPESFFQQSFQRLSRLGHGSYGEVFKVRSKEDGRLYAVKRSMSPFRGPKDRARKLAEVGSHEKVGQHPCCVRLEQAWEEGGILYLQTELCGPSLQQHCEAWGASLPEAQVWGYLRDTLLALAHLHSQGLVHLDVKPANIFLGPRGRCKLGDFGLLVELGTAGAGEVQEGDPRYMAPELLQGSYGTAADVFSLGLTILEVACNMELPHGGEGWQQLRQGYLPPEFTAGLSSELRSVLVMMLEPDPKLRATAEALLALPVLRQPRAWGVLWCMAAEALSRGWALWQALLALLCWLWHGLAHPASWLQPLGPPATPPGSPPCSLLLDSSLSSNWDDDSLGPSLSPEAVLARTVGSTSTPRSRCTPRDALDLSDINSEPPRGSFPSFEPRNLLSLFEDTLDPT

Row | SMILES | residual activity [2] | residual activity [3] | residual activity [4] | residual activity [5] | residual activity [6] | residual activity [7] | residual activity [9] | inhibition [10] | residual activity [11] | residual activity [12] | residual activity [13] | pKi [14] | residual activity [15] | residual activity [16] | residual activity [17] | residual activity [19] | residual activity [20] | residual activity [21] | residual activity [22] | residual activity [23] | further results
1 | O=C(O)c1cc(-c2ccc(C3CCNCC3)cc2)c2ccc(-c3ccc(C(F)(F)F)cc3)cc2c1 [PPTN] | 100% | 100% | 85% | 100% | 100% | 100% | 100% | 10.4% | 100% | 100% | 100% | 5.93 | 100% | 100% | 100% | 100% | 100% | 100% | 100% | 100% | inhibition [1]: 4%; inhibition (Caspase-3 (Homo sapiens)): 3%; inhibition at 60 min, 10 µM [8]: -10% (not active); pIC50 [18]: 5.48; pKi [18]: 5.49; residual activity [24]: 100%; residual activity [25]: 100%; residual activity [26]: 100%; inhibition [27]: 4.16%; residual activity [28]: 85%; residual activity [29]: 100%; residual activity [30]: 100%; inhibition [31]: -1%; pIC50 [32]: 5.02; pKi [32]: 5.14; residual activity [33]: 100%
2 | Cc1c(C(=O)O)cc(-c2ccc(C3CCNCC3)cc2)c2ccc(-c3ccc(C(F)(F)F)cc3)cc12 [PPTN-NC] | 90% | 100% | 91% | 100% | 100% | 100% | 100% | 8.42% | 100% | 100% | 100% | 5.93 | 89% | 100% | 100% | 100% | 89% | 100% | 100% | 100% | residual activity [24]: 100%; residual activity [25]: 97%; residual activity [26]: 95%; inhibition [27]: 7.22%; residual activity [28]: 86%; residual activity [29]: 100%; residual activity [30]: 100%; residual activity [33]: 100%
